{
  "source": "patent US6376209B2",
  "about": "“Increasing the FVII sensitivity of a thromboplastin reagent” (Dade Behring Marburg GmbH, priority 1997, dated 2002)",
  "format_in_all_cases": "biochemical",
  "key": {"control plasma Patho II [1]": {"system": "control plasma Patho II", "test": "PT, Behring Coagulation Timer (PT.sec Thromborel S)", "conditions": "0.75 sec, incubated 37° C., 90 min", "method": "(§1) The coagulation time was determined using a Behring Coagulation Timer (PT.sec Thromborel S). Standard human plasma, the. control plasma Patho II (Behringwerke AG) and an FVII-deficient plasma were employed as samples. The spread was calculated from the ratio of the coagulation times of the Patho II and the StHPl, and the FVII sensitivity was calculated from the ratio of the coagulation times for FVII-MP and STHPL.\nas §1, with “plasma, the” for “plasma, the.”, “II” for “II (Behringwerke AG)”, “spread as” for “spread was”\n(§2) Thromborel S Bulkware according to Example 8a) was short-time heated at a temperature of 120° C. using a dwell time of 0.75 sec and then adjusted to pH 7.5 with 0.16 mM sodium carbonate; different concentrations of chloramine T were subsequently added and the mixtures were incubated at 37° C. for 90 min. Stabilizers and 6 mM acetylcysteine were added to the solution. The pH value was adjusted to 6.5 and the coagulation time was determined using a Behring Coagulation Timer (PT.sec Thromborel S).\n(§3) Standard human plasma, the control plasma Patho II and an FVII-deficient plasma were used as samples. The spread was calculated from the ratio of the coagulation times of the Patho II and the StHPl, and the FVII sensitivity was calculated from the ratio of the coagulation times for the FVII-MP and the STHPL."}, "Standard human plasma [2]": {"system": "Standard human plasma", "test": "PT, Behring Coagulation Timer (PT.sec Thromborel S)", "conditions": "0.75 sec, incubated 37° C., 90 min", "method": "as §2, §3"}, "FVII-deficient plasma [3]": {"system": "FVII-deficient plasma", "test": "PT, Behring Coagulation Timer (PT.sec Thromborel S)", "conditions": "0.75 sec, incubated 37° C., 90 min", "method": "as §2, §3"}, "control plasma Patho II [4]": {"system": "control plasma Patho II", "test": "Quick's thromboplastin time (PT), Schnitger & Gross", "method": "(§4) Quick's thromboplastin time (PT) is then determined using a Schnitger & Gross as follows:\n(§5) Heat reagents and tubes to 37° C.;\n(§6) Introduce 100 μl of plasma into the tubes;\n(§7) Incubate for 1 min in the thermoblock;\n(§8) Add 200 μl of thromboplastin and at the same time start the measuring operation;\n(§9) shake the tube briefly, place it in the measuring position of the Schnitger & Gross, and insert the electrode holder up to the limit stop;\n(§10) Read off the coagulation time.\nThe spread was calculated from the ratio of the coagulation times for the dilution of the StHPl and the StHPl, and the FVII sensitivity was calculated from the ratio of the coagulation times for FVII-MP and STHPL.\nas §3, with “samples. The reagents were stored at 4° C. and 37° C. and the coagulation time was repeated after 7 and 14 days.” for “samples.”, “for” for “for the”"}, "Standard human plasma [5]": {"system": "Standard human plasma", "test": "Quick's thromboplastin time (PT), Schnitger & Gross", "method": "(§11) Quick's thromboplastin time (PT) was then determined using a Schnitger & Gross as follows:\nas §5\n(§12) Introduce […] of control plasma N or FVII-deficient plasma into the tubes;\nas §7\n(§13) Add 200 μl of thromboplastin and at the same time start the measuring operation; shake the tube briefly and place it in the measuring position of the Schnitger & Gross, and insert the electrode holder up to the limit stop;\nas §10, §4, §6, §8, §9"}, "FVII-deficient plasma [6]": {"system": "FVII-deficient plasma", "test": "Quick's thromboplastin time (PT), Schnitger & Gross", "conditions": "0.5 sec", "method": "as §11, §5, §12, §7, §13, §10, §4, §6, §8, §9"}, "[7]": {"conditions": "0.001 mM added to Thromborel S heated 120° C."}, "[8]": {"conditions": "0.01 mM added to Thromborel S heated 120° C."}, "[9]": {"conditions": "0.1 mM added to Thromborel S heated 120° C."}, "[10]": {"conditions": "0.5 mg/l added to Thromborel S heated 95° C."}, "[11]": {"conditions": "0.7 mg/l added to Thromborel S heated 95° C., 0.5 sec"}, "[12]": {"conditions": "0.7 mg/l added to Thromborel S heated 95° C."}},
  "note": "Read-outs that look alike come from different tables or passages of the source. Where a SMILES comes first, the peptide text is derived from it. [ ]: non-standard residue; d: D form. The star is where a group is joined. Sta = CC(C)C[C@H](N)[C@@H](O)CC(=O)O; Isovaleryl = CC(C)CC(=O)*",
  "data": [
    {"molecule": "Cc1ccc(S(=O)(=O)[N-]Cl)cc1.[Na+]", "note": "[chloramine T]", "values": [
      {"measurement": "Coagulation time Patho II", "setting": "control plasma Patho II [1]; [7]", "result": 34.2, "unit": "s"},
      {"measurement": "Spread Patho II/100%", "setting": "control plasma Patho II [1]; [7]", "result": 3.0},
      {"measurement": "Coagulation time Patho II", "setting": "control plasma Patho II [1]; [8]", "result": 34.7, "unit": "s"},
      {"measurement": "Spread Patho II/100%", "setting": "control plasma Patho II [1]; [8]", "result": 3.0},
      {"measurement": "Coagulation time Patho II", "setting": "control plasma Patho II [1]; [9]", "result": 38.2, "unit": "s"},
      {"measurement": "Spread Patho II/100%", "setting": "control plasma Patho II [1]; [9]", "result": 2.9},
      {"measurement": "Coagulation time 100%", "setting": "Standard human plasma [2]; [7]", "result": 11.5, "unit": "s"},
      {"measurement": "Coagulation time 100%", "setting": "Standard human plasma [2]; [8]", "result": 11.7, "unit": "s"},
      {"measurement": "Coagulation time 100%", "setting": "Standard human plasma [2]; [9]", "result": 13, "unit": "s"},
      {"measurement": "Coagulation time FV-MP", "setting": "FVII-deficient plasma [3]; [7]", "result": 140.1, "unit": "s"},
      {"measurement": "FVII-sens. FVII-MP/100%", "setting": "FVII-deficient plasma [3]; [7]", "result": 12.2},
      {"measurement": "Coagulation time FV-MP", "setting": "FVII-deficient plasma [3]; [8]", "result": 141.6, "unit": "s"},
      {"measurement": "FVII-sens. FVII-MP/100%", "setting": "FVII-deficient plasma [3]; [8]", "result": 12.1},
      {"measurement": "Coagulation time FV-MP", "setting": "FVII-deficient plasma [3]; [9]", "result": 177.4, "unit": "s"},
      {"measurement": "FVII-sens. FVII-MP/100%", "setting": "FVII-deficient plasma [3]; [9]", "result": 13.6}
    ]},
    {"molecule": "CC(=O)N[C@@H](CC(C)C)C(=O)N[C@@H](CC(C)C)C(=O)N[C@H](C=O)CCCNC(=N)N", "note": "[Leupeptin]", "values": [
      {"measurement": "Coagulation time Patho II", "setting": "control plasma Patho II [4]", "result": 22.5, "unit": "s"},
      {"measurement": "Spread: Patho II/100%", "setting": "control plasma Patho II [4]", "result": 2.1},
      {"measurement": "Coagulation time 100%", "setting": "Standard human plasma [5]", "result": 10.6, "unit": "s"},
      {"measurement": "Coagulation time FVII-MP", "setting": "FVII-deficient plasma [6]; [10]", "result": 121, "unit": "s"},
      {"measurement": "FVII sens.: FVII-MP/100%", "setting": "FVII-deficient plasma [6]; [10]", "result": 11.4}
    ]},
    {"molecule": "CC(C)CC(=O)N[C@H](C(=O)N[C@H](C(=O)N[C@@H](CC(C)C)[C@@H](O)CC(=O)N[C@@H](C)C(=O)N[C@@H](CC(C)C)[C@@H](O)CC(=O)O)C(C)C)C(C)C", "note": "[Pepstatin] (Isovaleryl-VV[Sta]A[Sta]-OH)", "values": [
      {"measurement": "Coagulation time Patho II", "setting": "control plasma Patho II [4]; [11]", "result": 21.6, "unit": "s"},
      {"measurement": "Spread: Patho II/100%", "setting": "control plasma Patho II [4]; [11]", "result": 2.0},
      {"measurement": "Coagulation time 100%", "setting": "Standard human plasma [5]; [11]", "result": 10.6, "unit": "s"},
      {"measurement": "Coagulation time FVII-MP", "setting": "FVII-deficient plasma [6]; [12]", "result": 115, "unit": "s"},
      {"measurement": "FVII sens.: FVII-MP/100%", "setting": "FVII-deficient plasma [6]; [12]", "result": 10.9}
    ]}
  ]
}
